Measurements published in ChEMBL document CHEMBL1147720, “Discovery and initial SAR of inhibitors of interleukin-1 receptor-associated kinase-4” (Bioorg Med Chem Lett, 2006).

Key:
[1] = target: T1, Interleukin-1 receptor-associated kinase 4 (Homo sapiens, UniProt Q9NWZ3); experiment: Inhibition of IRAK4
T1 sequence (Q9NWZ3 whole entry): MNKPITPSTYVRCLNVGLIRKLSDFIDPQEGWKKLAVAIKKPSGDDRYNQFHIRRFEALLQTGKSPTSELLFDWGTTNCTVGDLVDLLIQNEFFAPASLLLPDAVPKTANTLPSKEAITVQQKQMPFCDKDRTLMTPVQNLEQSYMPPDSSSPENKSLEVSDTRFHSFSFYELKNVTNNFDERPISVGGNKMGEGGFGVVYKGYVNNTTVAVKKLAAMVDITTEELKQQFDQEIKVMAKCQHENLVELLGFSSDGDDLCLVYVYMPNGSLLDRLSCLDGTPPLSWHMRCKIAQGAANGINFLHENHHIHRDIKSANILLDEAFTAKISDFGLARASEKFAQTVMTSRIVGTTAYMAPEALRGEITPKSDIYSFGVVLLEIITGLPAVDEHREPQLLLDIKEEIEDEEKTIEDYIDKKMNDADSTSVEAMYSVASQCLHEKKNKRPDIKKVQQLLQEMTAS

[2] = target: T2, Interleukin-1 receptor-associated kinase 4 (Homo sapiens) (UniProt Q9NWZ3); experiment: Inhibition of IRAK4 at 30 uM
T2 sequence (whole entry): T1 sequence (Q9NWZ3 whole entry)

[3] = target: Interleukin-1 receptor-associated kinase 1 (Homo sapiens, UniProt P51617); experiment: Inhibition of IRAK1
HeLa = experiment: Antiproliferative activity against human HeLa cell line after 72 hrs; assay type: functional; conditions: read-out: ED50 (the source's name)

Interleukin-1 receptor-associated kinase 1, sequence (P51617 whole entry): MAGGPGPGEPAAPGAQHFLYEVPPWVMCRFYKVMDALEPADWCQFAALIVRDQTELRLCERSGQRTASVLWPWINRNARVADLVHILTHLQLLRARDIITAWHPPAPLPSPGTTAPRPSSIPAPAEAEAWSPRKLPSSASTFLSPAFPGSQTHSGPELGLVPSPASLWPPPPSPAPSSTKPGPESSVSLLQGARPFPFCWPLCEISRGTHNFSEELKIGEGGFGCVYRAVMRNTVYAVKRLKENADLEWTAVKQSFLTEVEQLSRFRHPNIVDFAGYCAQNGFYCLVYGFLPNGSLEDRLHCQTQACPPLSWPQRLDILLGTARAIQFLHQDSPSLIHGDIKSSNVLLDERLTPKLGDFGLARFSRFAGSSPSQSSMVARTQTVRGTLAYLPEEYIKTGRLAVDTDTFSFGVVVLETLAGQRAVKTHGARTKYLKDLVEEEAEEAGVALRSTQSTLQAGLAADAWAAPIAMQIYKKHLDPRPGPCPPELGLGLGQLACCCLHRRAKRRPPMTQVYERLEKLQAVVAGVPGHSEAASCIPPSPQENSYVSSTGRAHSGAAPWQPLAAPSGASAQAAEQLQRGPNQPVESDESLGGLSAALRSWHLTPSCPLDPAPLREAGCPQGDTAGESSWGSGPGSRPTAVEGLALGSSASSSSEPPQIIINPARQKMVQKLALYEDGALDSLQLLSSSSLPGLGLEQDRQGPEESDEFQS

`O=C(Nc1nc2ccccc2[nH]1)c1ccc(F)c([N+](=O)[O-])c1` was tested, and the IC50 [1] was 6.5 µM.
Molecule `Cc1ccc2nc(NC(=O)c3cccc([N+](=O)[O-])c3)[nH]c2c1` has an IC50 [1] of 0.8 µM.
Molecule `O=C(Nc1nc2ccc(Cl)cc2[nH]1)c1cccc([N+](=O)[O-])c1` has an IC50 [1] of 6 µM.
For `CCOC(=O)CCn1c(NC(=O)c2cccc([N+](=O)[O-])c2)nc2ccccc21`, the IC50 [1] was 1 µM.
`CCCCn1c(NC(=O)c2ccc(OC)cc2)nc2ccccc21` gave an IC50 [1] of 6.5 µM.
Work on `Cc1ccc(C(=O)Nc2nc3ccccc3[nH]2)cc1[N+](=O)[O-]` yielded an IC50 [1] of 12 µM.
For `N#Cc1cccc(C(=O)Nc2nc3ccccc3[nH]2)c1`, the IC50 [1] was 13.6 µM.
For `CN(C(=O)c1cccc([N+](=O)[O-])c1)c1nc2ccccc2n1C1CCOC1=O` (stereo unspecified), the IC50 [1] was > 30 µM.
Molecule `CCN(CC)CCn1c(NC(=O)c2cccc([N+](=O)[O-])c2)nc2ccccc21` has an IC50 [1] of 3 µM.
`COC(=O)c1ccc2[nH]c(NC(=O)c3cccc([N+](=O)[O-])c3)nc2c1` showed an IC50 [1] of 25 µM.
For `O=C(Nc1nc2ccccc2[nH]1)c1ccccc1`, the inhibition [2] was 11%.
`C=CCn1c(NC(=O)c2cccc([N+](=O)[O-])c2)nc2ccccc21` gave an IC50 [1] of 1 µM.
`CN(C)CCCn1c(NC(=O)c2cccc([N+](=O)[O-])c2)nc2ccccc21` was tested, and the IC50 [1] was 4 µM.
In the case of `COc1ccc2nc(NC(=O)c3cccc([N+](=O)[O-])c3)[nH]c2c1`, the IC50 [1] is reported as 1.5 µM.
In the case of `O=C(Nc1nc2ccc(F)cc2[nH]1)c1cccc([N+](=O)[O-])c1`, the IC50 [1] is reported as 4.5 µM.
`O=C(Nc1nc2ccccc2n1CC1CCCO1)c1cccc([N+](=O)[O-])c1` (stereo unspecified) showed an IC50 [1] of 0.5 µM.
`O=[N+]([O-])c1cccc(S(=O)(=O)Nc2nc3ccccc3[nH]2)c1` showed an inhibition [2] of 45%.
`CCn1c(NC(=O)c2cccc([N+](=O)[O-])c2)nc2ccccc21` gave an IC50 [1] of 2 µM.
`O=[N+]([O-])c1cccc(CNc2nc3ccccc3[nH]2)c1` gave an inhibition [2] of 8%.
With `CCCS(=O)(=O)c1ccc2[nH]c(NC(=O)c3cccc([N+](=O)[O-])c3)nc2c1` the IC50 [1] was 4 µM.
In the case of `C=CCN(C(=O)c1cccc([N+](=O)[O-])c1)c1nc2ccccc2n1CC=C`, the IC50 [1] is reported as > 30 µM.
In the case of `CCOCCn1c(NC(=O)c2cccc([N+](=O)[O-])c2)nc2ccccc21`, the IC50 [1] is reported as 2 µM.
`O=C(Nc1nc2cc[nH]cc-2n1)c1cccc([N+](=O)[O-])c1` showed an IC50 [1] of 30 µM.
`CC(C)n1c(NC(=O)c2cccc([N+](=O)[O-])c2)nc2ccccc21` showed an IC50 [1] of 1 µM.
With `CCCCn1c(NC(=O)c2ccc(Cl)c(Cl)c2)nc2ccccc21` the IC50 [1] was 3 µM.
For `CCCCn1c(NC(=O)c2cccc([N+](=O)[O-])c2)nc2ccccc21`, the IC50 [1] was 2 µM.
For `O=C(Nc1nc2ccc[nH]c-2n1)c1cccc([N+](=O)[O-])c1`, the inhibition [2] was 39%.
With `O=C(O)Cn1c(NC(=O)c2cccc([N+](=O)[O-])c2)nc2ccccc21` the inhibition [2] was 38%.
`O=C(Nc1nc2ccccc2s1)c1cccc([N+](=O)[O-])c1` gave an inhibition [2] of 11%.
`O=C(O)CCn1c(NC(=O)c2cccc([N+](=O)[O-])c2)nc2ccccc21` showed an IC50 [1] of 4 µM.
`O=C(Nc1nc2cc(Cl)c(Cl)cc2[nH]1)c1cccc([N+](=O)[O-])c1` showed an inhibition [2] of 10%.
Work on `Cc1cc2nc(NC(=O)c3cccc([N+](=O)[O-])c3)[nH]c2cc1C` yielded an IC50 [1] of 8 µM.
In the case of `O=C(Nc1nc2ccccc2n1C1CCOC1=O)c1cccc([N+](=O)[O-])c1` (stereo unspecified), the IC50 [1] is reported as 0.55 µM.
Molecule `O=C(Nc1nc2ccccc2n1CCO)c1cccc([N+](=O)[O-])c1` has an IC50 [1] of 0.4 µM.
`O=C(Nc1nc2ccccc2n1CCC1CCC1)c1cccc([N+](=O)[O-])c1` showed an IC50 [1] of 2 µM.
For `O=C(Nc1nc2ccccc2n1CCN1CCOCC1)c1cccc([N+](=O)[O-])c1`, the IC50 [1] was 0.2 µM, the IC50 [3] was 0.3 µM and the EC50 (HeLa) was > 30 µM.
`CCOC(=O)Cn1c(NC(=O)c2cccc([N+](=O)[O-])c2)nc2ccccc21` was tested, and the IC50 [1] was 0.4 µM, the IC50 [3] was 0.75 µM and the EC50 (HeLa) was > 30 µM.
`CCCCn1c(NC(=O)c2cccc(Cl)c2)nc2ccccc21` was tested, and the IC50 [1] was 30 µM.
`O=C(Nc1nc2cc(F)c(F)cc2[nH]1)c1cccc([N+](=O)[O-])c1` gave an IC50 [1] of 30 µM.
Molecule `CCCCCn1c(NC(=O)c2cccc([N+](=O)[O-])c2)nc2ccccc21` has an IC50 [1] of 20 µM.
`O=C(Nc1nc2cc([N+](=O)[O-])ccc2[nH]1)c1cccc([N+](=O)[O-])c1` gave an inhibition [2] of 29%.
`O=C(Nc1cccc([N+](=O)[O-])c1)Nc1nc2ccccc2[nH]1` gave an inhibition [2] of 15%.
Work on `O=C(Nc1nc2c(F)c(F)ccc2[nH]1)c1cccc([N+](=O)[O-])c1` yielded an inhibition [2] of 24%.
`COCCn1c(NC(=O)c2cccc([N+](=O)[O-])c2)nc2ccccc21` gave an IC50 [1] of 1 µM.
Molecule `O=C(Nc1nc2c([N+](=O)[O-])cccc2[nH]1)c1cccc([N+](=O)[O-])c1` has an inhibition [2] of 25%.
`CCCCn1c(NC(=O)c2ccc([N+](=O)[O-])cc2)nc2ccccc21` showed an inhibition [2] of 8%.
In the case of `O=C(Nc1nc2ccccc2[nH]1)c1cccc([N+](=O)[O-])c1`, the IC50 [1] is reported as 4 µM.
